“Also recorded” adds a separate entry of the source.
What was measured:
B. subtilis MF920 = experiment: Survival rate (viable cell count) after addition of amino acids and heat treatment; format: cell-based, Bacillus subtilis; conditions: heated at 80° C. for 10 minutes; for viable cell count compared with sterilized purified water alone: amino acid 1% (w/v), FIG. 5
Method: In the same manner as the above-mentioned (1)-(i), additives of glycine, L-alanine, L-serine, L-lysine monohydrochloride, L-threonine and L-arginine monohydrochloride were dissolved in sterilized purified water, respectively to prepare amino acid solutions of 10% (w/v). Then a bacteria solution (B. subtilis MF920) was added to 1 ml of each of the amino acid solutions so that amino acid concentration in each tube would be 1% (w/v).
The test tubes were heated at 80° C. for 10 minutes and then quenched. Then, 10 fold dilutions of the obtained bacteria solutions were prepared.
0.1 ml of each dilution was inoculated on three dishes and incubated 2 days to count expressed colonies. The survival rate was measured in the same manner as described above.
Change in the bacteria survival rate was examined in the same manner as the above-mentioned (2) except that the concentration of L-serine was varied within 0.01 to 1% (w/v).

Escherichia coli = conditions: in the presence of ethanol; cited from earlier work
E. coli [1] = experiment: Survival rate of E. coli after addition of L- or D-serine, with or without heat treatment; format: cell-based, Escherichia coli; conditions: serine 0.5% (w/v), FIG. 2
Method: (i) Glycine, L-alanine, L-serine, L-lysine monohydrochloride, L threonine or L-arginine monohydrochloride was put in test tubes as an additive, respectively, and dissolved in sterilized purified water to prepare amino acid solutions of 10% (w/v). To 1 ml of each of the amino acid solutions 9 ml of the bacteria solution was added so that the concentration of each amino acid would be 1% (w/v).
The test tubes containing these amino acids and the bacteria solution were allowed to stand at room temperature for 10 minutes and 10^4 fold dilutions were obtained from the resulting solutions.
0.1 ml of each dilution was inoculated on three dishes and incubated for 2 days to count the number of expressed colonies as the viable cell count.
In the same manner as described above, a 10^4 fold dilution prepared without adding amino acid was used as a blank and incubated to count expressed colonies as the viable cell count.
As a survival rate, the viable cell count of bacteria added with amino acid with respect to the viable cell count measured in the blank was measured.
(ii) The survival rate of E. coli was measured in the same manner as described above except that L-serine and D-serine of 0.5% (w/v) as the amino acids and an E. coli solution as the bacteria solution were used.

S. typhimurium = experiment: Growth curve by turbidity at 660 nm; format: cell-based, Salmonella typhimurium
Method: (§1) (iii) L-serine or D-serine as the amino acid was dissolved in sterilized purified water and added with bacteria solutions (B. subtilis and S. typhimurium) of the same amount and then introduced in test tubes. 1 ml of each solution was inoculated on a 9 ml DM medium (partially modified) so that final serine concentration would be 0.5% (w/v). Turbidity of the medium added with the bacteria solution and serine was measured on 660 nm at 37° C. for 10 hours immediately after the inoculation and then growth curves of B. subtilis and S. typhimurium were formed.
(§2) As a control, turbidity was measured on a medium merely added with sterilized purified water instead of serine.
(§3) (ii) Turbidity was measured on 660 nm for 8 hours immediately after the inoculation and growth curves of S. typhimurium and B. subtilis were formed in substantially the same manner as the above-described (1)-(iii), except that only L-serine or D-serine of 0.5% (w/v), or L-serine or D serine of 0.5% (w/v) in combination with protamine of 0.03% (w/v), each at the final concentration, were added and solutions of S. typhimurium and B. subtilis were used.
(§4) With compounds shown in FIGS. 14, 16 and 18, growth curves of S. typhimurium, B. subtilis and E. coli were formed in substantially the same manner as the above-described (1)-(111), respectively. The results are shown in FIGS. 14, 16 and 18, respectively. For comparison, the compounds were solely used without L-serine and the growth curves of S. typhimurium, B. subtilis and E. coli were formed. The results are shown in FIGS. 15, 17 and 19, respectively.

E. coli [2] = experiment: Growth curve by turbidity at 660 nm; format: cell-based, Escherichia coli; conditions: L-serine 1.5% (w/v) solely, 8 hours; FIG. 7
Method: as §1, §2
(i) Turbidity of the medium was measured on 660 nm for 8 hours immediately after the inoculation and the growth curve of E. coli was formed in the same manner as the above-described (1)-(iii) except that L-serine of 1.5% (w/v), or L-serine or D-serine of 1.5% (w/v) and protamine of 0.1% (w/v), each at the final concentration, were added and an E. coli solution was used.
With compounds shown in FIGS. 14, 16 and 18, growth curves of S. typhimurium, B. subtilis and E. coli were formed in substantially the same manner as the above-described (1)-(111), respectively. The results are shown in FIGS. 14, 16 and 18, respectively. […]

[3] = Amino acid analysis of L-serine after a heat treatment; format: physicochemical; conditions: for L-serine concentration: nominal 2 nmol/10 μl
Method: L-serine was added in 1% (w/v) to the bacteria solution and to the medium used in the above. The obtained bacteria culture solution and medium were divided in two test tubes, respectively. One of them was allowed to stand at room temperature for 10 minutes and the other was heated at 80° C. for 10 minutes. Both were quenched and diluted so that the L-serine concentration would be 2 nmol/10 μl and amino acid analysis was carried out with an amino acid automatic analyzer.

E. coli [4] = experiment: E. coli survival rate after heat treatment in the presence of casein; format: cell-based, Escherichia coli; conditions: L-serine 1% (w/v), casein 1 to 4% (w/v), heated at 40° C. for 10 minutes; FIG. 11
Method: L-serine of 0% or 1% (w/v), casein of 1 to 4% (w/v) and a 802 growth medium were added in test tubes. The test tubes were heated at 40° C. for 10 minutes and quenched. 10-fold dilutions of the resulting solutions were prepared. 0.1 ml of each of the dilutions was inoculated on three dishes, incubated for one day and expressed colonies were counted to examine change in the E. coli survival rate.

B. subtilis = experiment: Growth curve by turbidity at 660 nm; format: cell-based, Bacillus subtilis; conditions: for proliferation of B. subtilis compared with the control: serine 0.5% (w/v), 37° C., 10 hours, turbidity 660 nm, FIG. 3
Method: as §1, §2, §3
Growth curves of B. subtilis were formed in the same manner as the above-described (4) except that protamine of 0.03% (w/v) was replaced with lysozyme of 0.1% (w/v).
as §4

[5] = serine 0.5% (w/v) only, 8 hours, FIG. 8
[6] = serine 0.5% (w/v), 37° C., 10 hours, turbidity 660 nm, FIG. 4

For C[C@@H](O)[C@H](N)C(=O)O [L-threonine], the “viable cell count compared with sterilized purified water alone” value (B. subtilis MF920) was “increase”.

With C[C@H](N)C(=O)O [L-alanine] the “viable cell count compared with sterilized purified water alone” value (B. subtilis MF920) was “slightly reduced”.

In the case of NCC(=O)O [glycine], the “bacteriostasis to Escherichia coli” value (Escherichia coli) is given as “shows bacteriostasis” and the “viable cell count compared with sterilized purified water alone” value (B. subtilis MF920) is given as “slightly reduced”.

For Cl.N=C(N)NCCC[C@H](N)C(=O)O [L-arginine, L-arginine monohydrochloride], the “viable cell count compared with sterilized purified water alone” value (B. subtilis MF920) was “increase”.

For N[C@@H](CO)C(=O)O [L-serine], the “bacteria proliferation after heat treatment” value (E. coli [1]; heat treatment at 80° C. for 10 minutes) was “further inhibited”, the “bacteria proliferation relative to the blank” value (E. coli [1]; no heat treatment) was “about 30%” and the “proliferation of S. typhimurium relative to the control” value (S. typhimurium; [5]) was “about 80%”. For the same molecule, the “proliferation of S. typhimurium relative to the control” value (S. typhimurium; [6]) was “about 80%”, the “proliferation of E. coli relative to the control” value (E. coli [2]) was “about 40%” and the decomposition by heating ([3]; 80° C. for 10 minutes, regardless of the presence of bacteria) was “would not be decomposed”. The L-serine concentration ([3]; bacteria solution heated (80° C., 10 minutes)) was 2.3 nmol/10 μl, the L-serine concentration ([3]; bacteria solution unheated (room temperature 10 minutes)) was 2.3 nmol/10 μl and the L-serine concentration ([3]; medium heated (80° C., 10 minutes)) was 2.3 nmol/10 μl. The L-serine concentration ([3]; medium unheated (room temperature 10 minutes)) was 2.2 nmol/10 μl, the “survival rate as a function of L-serine concentration” value (B. subtilis MF920; L-serine 0.01 to 1% (w/v), FIG. 6) was “the higher the L-serine concentration was, the more the survival rate decreased” and the “viable cell count compared with sterilized purified water alone” value (B. subtilis MF920) was “remarkably reduced; also recorded: greatest reduction”. The “E. coli proliferation in the presence of casein” value (E. coli [4]) was “effective inhibition” and the “proliferation of B. subtilis compared with the control” value (B. subtilis) was “about 10%”.

For N[C@H](CO)C(=O)O [D-serine], the “proliferation of S. typhimurium relative to the control” value (S. typhimurium; [5]) was “about 80%”, the “proliferation of S. typhimurium relative to the control” value (S. typhimurium; [6]) was “about 80%” and the “proliferation of B. subtilis relative to the control” value (B. subtilis; serine 0.5% (w/v) only, 8 hours, FIGS. 9 and 10) was “about 50%”. The “proliferation of B. subtilis compared with the control” value (B. subtilis) was 80%.

In the case of Cl.NCCCC[C@H](N)C(=O)O [L-lysine, L-lysine monohydrochloride], the “viable cell count compared with sterilized purified water alone” value (B. subtilis MF920) was “increase”.

From patent US6602532B2, “Process of preserving food and food preservative” (F.G.A. Laboratories Flavourence Corporation, priority 2000, dated 2003)
